Results: patent publication US11725036B2, “Modified lipidated relaxin B chain peptides and their therapeutic use” (Sanofi, priority 2018, dated 2023)
Starred links: 1 amine or outer side, 2 acyl side, 3 side chain; linkers in the order of their positions; H or OH if unused. Non-standard residues stand in square brackets, D forms with d. Residues, ends and D or L forms follow the SMILES beside them. Groups on a side chain read outwards from the residue. *: point of attachment. X10 = CCCCCCCCCCCCCC(=O)N[C@@H](CCC(=O)N[C@@H](CCC(=O)N[C@@H](CCC(=O)N[C@@H](CCC(=O)NCCCOCCOCCOCCCNC(=O)CCC(=O)NCCCOCCOCCOCCCNC(=O)CCC(=O)NCCCOCCOCCOCCCN*)C(=O)O)C(=O)O)C(=O)O)C(=O)O; X15 = CCCCCCCCCCCCCCCCCC(=O)N[C@@H](CCC(=O)N[C@@H](CCC(=O)N[C@@H](CCC(=O)NCCCOCCOCCOCCCNC(=O)COCC(=O)NCCCOCCOCCOCCCNC(=O)COCC(=O)NCCCOCCOCCOCCCNC(=O)COCC(=O)*)C(=O)O)C(=O)O)C(=O)O; X1 = CCCCCCCCCCCCCCCC(=O)N[C@@H](CCC(=O)N[C@@H](CCC(=O)N[C@@H](CCC(=O)NCCCOCCOCCOCCCNC(=O)CCC(=O)NCCCOCCOCCOCCCNC(=O)CCC(=O)NCCCOCCOCCOCCCN*)C(=O)O)C(=O)O)C(=O)O; Suc = O=C(CCC(=O)[*:2])[*:1]; αMeK = C[C@](N)(CCCCN)C(=O)O; Aib = CC(C)(N)C(=O)O

Molecular target: T1, RXFP1 (Homo sapiens, UniProt Q9HBX9)
T1 construct: OVCAR5 cells expressing endogenous RXFP1; endogenous in cells; host or cells: OVCAR5
T1 sequence (Q9HBX9 1-757): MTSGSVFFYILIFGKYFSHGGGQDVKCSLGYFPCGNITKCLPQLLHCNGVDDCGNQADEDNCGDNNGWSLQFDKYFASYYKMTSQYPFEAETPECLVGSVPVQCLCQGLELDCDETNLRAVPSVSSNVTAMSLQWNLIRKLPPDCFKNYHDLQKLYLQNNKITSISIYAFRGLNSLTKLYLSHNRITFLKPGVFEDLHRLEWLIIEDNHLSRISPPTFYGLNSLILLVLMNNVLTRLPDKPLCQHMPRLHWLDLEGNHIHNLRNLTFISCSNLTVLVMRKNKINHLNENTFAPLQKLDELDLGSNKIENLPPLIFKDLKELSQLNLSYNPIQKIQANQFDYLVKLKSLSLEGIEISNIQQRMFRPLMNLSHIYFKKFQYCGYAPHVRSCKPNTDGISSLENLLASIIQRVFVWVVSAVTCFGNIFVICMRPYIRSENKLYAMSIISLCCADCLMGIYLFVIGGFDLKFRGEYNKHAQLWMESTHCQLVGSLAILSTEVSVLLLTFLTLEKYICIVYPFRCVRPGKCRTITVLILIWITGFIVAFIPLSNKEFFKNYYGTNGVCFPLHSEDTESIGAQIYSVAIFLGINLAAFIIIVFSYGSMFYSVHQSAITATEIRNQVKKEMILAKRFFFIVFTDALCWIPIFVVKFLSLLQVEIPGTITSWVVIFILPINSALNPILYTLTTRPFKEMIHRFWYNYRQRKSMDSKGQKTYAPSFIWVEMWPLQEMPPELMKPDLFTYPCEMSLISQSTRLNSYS
Test: OVCAR5 cAMP assay (HTRF)
Assay type: cell-based
Conditions: for EC50: OVCAR 5 cells expressing endogenous RXFP1, cAMP readout; for Emax: OVCAR 5 cells, maximal cAMP relative to H2-relaxin
Excerpt: OVCAR5 cells expressing endogenous RXFP1 were used to test RXP1 agonist properties of peptides of the invention, and in particular of the peptides of sequence SEQ ID NO: 1-97.
Since RXFP1 is a Gs coupled GPCR, cAMP was used as readout of RXFP1 activation.
Isobutyl Methyl Xanthine (IBMX) was used to inhibit phosphodiesterase activity facilitating cAMP measurements. HTRF (Homogenous Time Resolved Fluorescence) technology was used to detect cAMP due to its great sensitivity.
In summary, OVCAR5 were grown in regular medium (RPMI) containing 10% fetal calf serum (FCS) and 1% antibiotics (penicillin/streptomycin).
Before the experiments, cells were detached with accutase and incubated for 40 minutes at 37° C. with 1 mM (3-isobutyl-1-methylxanthine) IBMX.
Cells were then distributed in 384 black well plates containing increasing concentrations of the different peptides in a fix volume of medium (without FCS).
After an incubation of 30 min at 37° C. in an humid incubator in 5% CO2, the reaction was stopped by adding a fixed volume of a solution containing a lysis buffer and cAMP-D2 (cAMP labeled with the dye d2) and the anti cAMP antibody linked to Europium and used for cAMP detection.
Readout of the experiment were performed on a fluorimeter allowing HTRF measurement. Activation curves were generated by plotting the intracellular value of cAMP versus log 10 of the compound concentration.
The 50% activation concentration (EC50) was calculated by nonlinear regression using the sigmoidal dose-response (variable slope) equation with Prism 5 software.
Emax % was determined as the maximal intracellular value of cAMP for test compound (upper limit of cAMP vs concentration curve) divided by the maximal intracellular value of cAMP for H2-relaxin determined in the same test occasion multiplied by 100. Emax %=100×[cAMPtest cpd]/[cAMPH2-Rlx]

EC50 [nM] | Emax [%] | SMILES
0.29 | 98 | CCCCCCCCCCCCCC(=O)N[C@@H](CCC(=O)N[C@@H](CCC(=O)N[C@@H](CCC(=O)N[C@@H](CCC(=O)NCCCOCCOCCOCCCNC(=O)CCC(=O)NCCCOCCOCCOCCCNC(=O)CCC(=O)NCCCOCCOCCOCCCNC(=O)CCC(=O)NCCCC[C@H](NC(=O)CNC(=O)[C@H](CCC(=O)O)NC(=O)C(C)(C)NC(=O)C(C)(C)NC(=O)[C@@H](NC(=O)[C@H](CCCCNC(C)=O)NC(=O)[C@H](C)NC(=O)[C@H](CCCNC(=N)N)NC(=O)[C@@H](NC(=O)[C@H](CCCCN)NC(=O)[C@H](CCC(=O)O)NC(=O)[C@H](CCCNC(=N)N)NC(=O)CNC(=O)[C@H](CCC(=O)O)NC(=O)[C@H](CC(C)C)NC(C)=O)C(C)C)[C@@H](C)CC)C(=O)N[C@@H](CO)C(=O)N[C@H](C(=O)N[C@@H](Cc1ccccc1)C(=O)N[C@@H](CO)C(=O)N[C@@](C)(CCCCN)C(=O)N[C@@H](CCCNC(=N)N)C(=O)N[C@@H](C)C(=O)N[C@@H](CCCCN)C(N)=O)[C@@H](C)O)C(=O)O)C(=O)O)C(=O)O)C(=O)O [compound 97] (Ac-LEGREKVRAK(Ac)I[Aib][Aib]EGK([Suc-X10])STFS[αMeK]RAK-NH2)
1.45 | 97 | CCCCCCCCCCCCCCCC(=O)N[C@@H](CCC(=O)N[C@@H](CCC(=O)N[C@@H](CCC(=O)NCCCOCCOCCOCCCNC(=O)CCC(=O)NCCCOCCOCCOCCCNC(=O)CCC(=O)NCCCOCCOCCOCCCNC(=O)CCC(=O)NCCCC[C@H](NC(=O)CNC(=O)[C@H](CCC(=O)O)NC(=O)C(C)(C)NC(=O)C(C)(C)NC(=O)[C@@H](NC(=O)[C@H](CCCCNC(C)=O)NC(=O)[C@H](C)NC(=O)[C@H](CCCNC(=N)N)NC(=O)[C@@H](NC(=O)[C@H](CCCCN)NC(=O)[C@H](CCC(=O)O)NC(=O)[C@H](CCCNC(=N)N)NC(=O)CNC(=O)[C@H](CCC(=O)O)NC(=O)[C@H](CC(C)C)NC(C)=O)C(C)C)[C@@H](C)CC)C(=O)N[C@@H](CO)C(=O)N[C@@H](CCC(N)=O)C(=O)N[C@@H](Cc1c[nH]c2ccccc12)C(=O)N[C@@H](CO)C(=O)NC(C)(C)C(=O)N[C@@H](CCCNC(=N)N)C(=O)N[C@@H](CCCCN)C(=O)N[C@@H](CCCCNC(C)=O)C(N)=O)C(=O)O)C(=O)O)C(=O)O [compound 63] (Ac-LEGREKVRAK(Ac)I[Aib][Aib]EGK([Suc-X1])SQWS[Aib]RKK(Ac)-NH2)
0.1 | 97 | CCCCCCCCCCCCCCCCCC(=O)N[C@@H](CCC(=O)N[C@@H](CCC(=O)N[C@@H](CCC(=O)NCCCOCCOCCOCCCNC(=O)COCC(=O)NCCCOCCOCCOCCCNC(=O)COCC(=O)NCCCOCCOCCOCCCNC(=O)COCC(=O)NCCCC[C@H](NC(=O)CNC(=O)[C@H](CCC(=O)O)NC(=O)C(C)(C)NC(=O)C(C)(C)NC(=O)[C@@H](NC(=O)[C@H](CCCCNC(C)=O)NC(=O)[C@H](C)NC(=O)[C@H](CCCNC(=N)N)NC(=O)[C@@H](NC(=O)[C@H](CCCCN)NC(=O)[C@H](CCC(=O)O)NC(=O)[C@H](CCCNC(=N)N)NC(=O)CNC(=O)[C@H](CCC(=O)O)NC(=O)[C@H](CC(C)C)NC(C)=O)C(C)C)[C@@H](C)CC)C(=O)N[C@@H](CO)C(=O)N[C@H](C(=O)N[C@@H](Cc1ccccc1)C(=O)N[C@@H](CO)C(=O)N[C@@](C)(CCCCN)C(=O)N[C@@H](CCCNC(=N)N)C(=O)N[C@@H](C)C(=O)N[C@@H](CCCCNC(C)=O)C(N)=O)[C@@H](C)O)C(=O)O)C(=O)O)C(=O)O [compound 32] (Ac-LEGREKVRAK(Ac)I[Aib][Aib]EGK(X15)STFS[αMeK]RAK(Ac)-NH2)
